Test results reported in PubChem BioAssay (NCI).
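GI50 is the concentration that inhibits growth by half. TGI: concentration producing complete growth inhibition.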

How the values were obtained:
Assay in all cases: inhibition of tumour cell growth, NCI panel, 384-well format
[1] = system: RXF 393 renal
[2] = system: NCI-H522 lung
[3] = system: NCI/ADR-RES ovarian
[4] = system: UACC-257 melanoma
[5] = system: ACHN renal
[6] = system: COLO 205 colon
[7] = system: U251 glioblastoma
[8] = system: OVCAR-5 ovarian
[9] = system: PC-3 prostate
[10] = system: EKVX NSCLC
[11] = system: OVCAR-8 ovarian
[12] = system: SNB-19 CNS
[13] = system: UO-31 renal
[14] = system: M14 melanoma
[15] = system: MCF7 breast
[16] = system: IGROV1 ovarian
[17] = system: OVCAR-4 ovarian
[18] = system: SW-620 colon
[19] = system: OVCAR-3 ovarian
[20] = system: NCI-H23 lung
[21] = system: HS 578T breast
[22] = system: HCT-116 colon
[23] = system: TK-10 renal
[24] = system: MDA-MB-435 melanoma
[25] = system: A498 renal
[26] = system: DU-145 prostate
[27] = system: KM12 colon
[28] = system: CAKI-1 renal
[29] = system: K-562 leukemia
[30] = system: SF-268 CNS
[31] = system: SN12C renal
[32] = system: SK-OV-3 ovarian
[33] = system: MALME-3M melanoma
[34] = system: SK-MEL-28 melanoma
[35] = system: MDA-MB-231 breast
[36] = system: SK-MEL-5 melanoma
[37] = system: 786-0 renal
[38] = system: HOP-62 NSCLC
[39] = system: SF-295 CNS
[40] = system: NCI-H226 lung
[41] = system: UACC-62 melanoma
[42] = system: NCI-H322M lung
[43] = system: BT-549 breast
[44] = system: SF-539 CNS
[45] = system: HT29 colon
[46] = system: MDA-MB-468 breast
[47] = system: SNB-75 CNS
[48] = system: HCC-2998 colon
[49] = system: HOP-92 NSCLC
[50] = system: LOX IMVI melanoma
[51] = system: A549 NSCLC
[52] = system: MOLT-4 leukemia
[53] = system: RPMI-8226 leukemia
[54] = system: T-47D breast
[55] = system: HCT-15 colon
[56] = system: SR leukemia
[57] = system: HL-60(TB) leukemia
[58] = system: NCI-H460 NSCLC

## N#Cc1ccc(C(c2ccc(C#N)cc2)n2cncn2)cc1
[1]
  GI50: 16.8 µM
  TGI: 97.8 µM

## Cc1c(NC(=O)OC[C@@H]2COCCN2)cn2ncnc(Nc3ccc4c(cnn4Cc4cccc(F)c4)c3)c12
[2]
  GI50: 0.255 µM
  TGI: 3.82 µM
[3]
  GI50: 12.6 µM
  TGI: 25.2 µM
[4]
  GI50: 2.03 µM
  TGI: 3.98 µM
[5]
  GI50: 0.815 µM
  TGI: 12.7 µM
[6]
  GI50: 2.96 µM
  TGI: 7.54 µM
[7]
  GI50: 1.91 µM
  TGI: 3.54 µM
[8]
  GI50: 3.37 µM
  TGI: 16.1 µM
[9]
  GI50: 3 µM
  TGI: 7.88 µM
[10]
  GI50: 1.02 µM
  TGI: 5.16 µM
[11]
  GI50: 4.46 µM
  TGI: 16.2 µM
[12]
  GI50: 3.72 µM
  TGI: 13.8 µM
[13]
  GI50: 1.47 µM
  TGI: 3.73 µM
[14]
  GI50: 2.08 µM
  TGI: 4.29 µM
[15]
  GI50: 3 µM
  TGI: 10.4 µM
[16]
  GI50: 0.0935 µM
  TGI: 4.96 µM
[17]
  GI50: 3.75 µM
  TGI: 12.4 µM
[18]
  GI50: 3.8 µM
  TGI: 12 µM
[19]
  GI50: 2.67 µM
  TGI: 9.15 µM
[20]
  GI50: 3.6 µM
  TGI: 12.4 µM
[21]
  GI50: 2.33 µM
  TGI: 5.32 µM
[22]
  GI50: 2.35 µM
  TGI: 4.88 µM
[23]
  GI50: 0.661 µM
  TGI: 3.48 µM
[24]
  GI50: 4.66 µM
  TGI: 13.3 µM
[25]
  GI50: 1.4 µM
  TGI: 3.24 µM
[26]
  GI50: 2.44 µM
  TGI: 13.6 µM
[27]
  GI50: 3.74 µM
  TGI: 13.5 µM
[28]
  GI50: 1.9 µM
  TGI: 14.3 µM
[29]
  GI50: 1.79 µM
  TGI: 3.32 µM
[30]
  GI50: 0.943 µM
  TGI: 3.78 µM
[31]
  GI50: 1.96 µM
  TGI: 14.4 µM
[32]
  GI50: 1.77 µM
  TGI: 5.72 µM
[33]
  GI50: 2.23 µM
  TGI: 4.77 µM
[34]
  GI50: 2.15 µM
  TGI: 4.05 µM
[35]
  GI50: 1.92 µM
  TGI: 4.65 µM
[36]
  GI50: 1.51 µM
  TGI: 2.9 µM
[37]
  GI50: 1.42 µM
  TGI: 2.91 µM
[38]
  GI50: 2.01 µM
  TGI: 9.3 µM
[39]
  GI50: 2.28 µM
  TGI: 4.89 µM
[40]
  GI50: 5.08 µM
  TGI: 18.1 µM
[41]
  GI50: 1.91 µM
  TGI: 3.56 µM
[42]
  GI50: 0.363 µM
  TGI: 11.1 µM
[43]
  GI50: 2.03 µM
  TGI: 4.36 µM
[44]
  GI50: 1.95 µM
  TGI: 3.86 µM
[45]
  GI50: 1.81 µM
  TGI: 3.47 µM
[1]
  GI50: 1.67 µM
  TGI: 3.34 µM
[46]
  GI50: 0.0222 µM
  TGI: 0.0701 µM
[47]
  GI50: 2.96 µM
  TGI: 9 µM
[48]
  GI50: 1.66 µM
  TGI: 3.61 µM
[49]
  GI50: 2.46 µM
  TGI: 9.57 µM
[50]
  GI50: 1.7 µM
  TGI: 3.2 µM
[51]
  GI50: 2.82 µM
  TGI: 13.6 µM
[52]
  GI50: 1.69 µM
  TGI: 3.35 µM
[53]
  GI50: 2.29 µM
  TGI: 4.19 µM
[54]
  GI50: 0.0467 µM
  TGI: 1.06 µM
[55]
  GI50: 2.19 µM
  TGI: 5.47 µM

## N[C@@H]1CCCN(c2c(/C=C3\SC(=O)NC3=O)cccc2-c2ccccc2)C1
[2]
  GI50: 13.5 µM
  TGI: 26.4 µM
[3]
  GI50: 18.1 µM
  TGI: 33.1 µM
[4]
  GI50: 15.9 µM
  TGI: 29.4 µM
[5]
  GI50: 17.7 µM
  TGI: 31.7 µM
[6]
  GI50: 14.1 µM
  TGI: 27.1 µM
[7]
  GI50: 8.54 µM
  TGI: 20.8 µM
[8]
  GI50: 17 µM
  TGI: 30.8 µM
[9]
  GI50: 13.2 µM
  TGI: 26 µM
[56]
  GI50: 1.16 µM
  TGI: 15.5 µM
[10]
  GI50: 16.4 µM
  TGI: 30 µM
[11]
  GI50: 16.2 µM
  TGI: 29.9 µM
[12]
  GI50: 4.67 µM
  TGI: 15 µM
[14]
  GI50: 14.6 µM
  TGI: 27.8 µM
[15]
  GI50: 14.5 µM
  TGI: 27.8 µM
[16]
  GI50: 17.1 µM
  TGI: 31.2 µM
[17]
  GI50: 12.3 µM
  TGI: 25.3 µM
[19]
  GI50: 13.1 µM
  TGI: 25.9 µM
[20]
  GI50: 16.8 µM
  TGI: 30.6 µM
[21]
  GI50: 13.8 µM
  TGI: 26.8 µM
[22]
  GI50: 15.4 µM
  TGI: 28.9 µM
[23]
  GI50: 12.3 µM
  TGI: 24.9 µM
[24]
  GI50: 15.1 µM
  TGI: 28.5 µM
[25]
  GI50: 16.6 µM
  TGI: 30.3 µM
[26]
  GI50: 16.9 µM
  TGI: 30.7 µM
[27]
  GI50: 16.9 µM
  TGI: 30.8 µM
[28]
  GI50: 18.5 µM
  TGI: 32.8 µM
[57]
  GI50: 1.31 µM
  TGI: 16.5 µM
[30]
  GI50: 16.8 µM
  TGI: 30.6 µM
[31]
  GI50: 19.4 µM
  TGI: 33.6 µM
[32]
  GI50: 14.8 µM
  TGI: 28.5 µM
[33]
  GI50: 12.9 µM
  TGI: 25.7 µM
[34]
  GI50: 16.9 µM
  TGI: 30.7 µM
[35]
  GI50: 14.5 µM
  TGI: 27.8 µM
[36]
  GI50: 11.4 µM
  TGI: 23.5 µM
[58]
  GI50: 16.8 µM
  TGI: 30.6 µM
[38]
  GI50: 11.7 µM
  TGI: 23.9 µM
[39]
  GI50: 6.08 µM
  TGI: 18.7 µM
[40]
  GI50: 13.8 µM
  TGI: 26.7 µM
[41]
  GI50: 16.6 µM
  TGI: 30.4 µM
[42]
  GI50: 18 µM
  TGI: 31.9 µM
[43]
  GI50: 1.9 µM
  TGI: 4.17 µM
[44]
  GI50: 7.38 µM
  TGI: 20.2 µM
[45]
  GI50: 15.2 µM
  TGI: 28.8 µM
[1]
  GI50: 17 µM
  TGI: 30.8 µM
[46]
  GI50: 14.6 µM
  TGI: 27.8 µM
[47]
  GI50: 3.5 µM
  TGI: 12.1 µM
[48]
  GI50: 14.5 µM
  TGI: 27.7 µM
[49]
  GI50: 11.5 µM
  TGI: 23.8 µM
[50]
  GI50: 17.8 µM
  TGI: 31.6 µM
[51]
  GI50: 16.7 µM
  TGI: 30.8 µM
[52]
  GI50: 13.4 µM
  TGI: 26.3 µM
[53]
  GI50: 0.543 µM
  TGI: 3.07 µM
[54]
  GI50: 15.6 µM
  TGI: 29 µM
[55]
  GI50: 17.7 µM
  TGI: 31.7 µM
